The subject of assay [1] is acetic acid-induced reduction of bladder capacity. Put plainly: Dilute acetic acid model: bladder capacity by filling cystometry during continuous intravesical acetic acid irritation. Particulars: for post-test: reversal of bladder capacity reduction: rats; for effect on bladder capacity (reversal of acetic acid-induced reduction): increasing doses, rats during continuous irritation. The class given is in vivo, rat. The text has this:
The objective of the current study was to determine the effect of TTX-R sodium channel modulators or use dependent sodium channel modulators on the ability to reverse the reduction in bladder capacity seen following continuous infusion of dilute acetic acid, a commonly used model of lower urinary tract disorders including overactive bladder.
Animal Preparation: Female rats (250-275 g BW) were anesthetized with urethane (1.2 g/kg) and a saline-filled catheter (PE-50) was inserted into either the jugular vein for intravenous (i.v.; saline vehicle) or the proximal duodenum for intraduodenal (i.d.; distilled water or 10% Tween 80 in saline as vehicle) drug administration. Via a midline lower abdominal incision, a flared-tipped PE 50 catheter was inserted into the bladder dome for bladder filling and pressure recording and secured by ligation. The abdominal cavity was moistened with saline and closed by covering with a thin plastic sheet in order to maintain access to the bladder for emptying purposes. Fine silver or stainless steel wire electrodes were inserted into the external urethral sphincter (EUS) percutaneously for electromyography (EMG).
Experimental Design: Saline was continuously infused at a rate of 0.055 ml/min via the bladder filling catheter for ≧60 minutes to obtain a baseline of lower urinary tract activity (continuous cystometry; CMG). Following the control period, a 0.25% acetic acid solution in saline was infused into the bladder at the same flow rate to induce bladder irritation. Following 30 minutes of AA infusion, 3 vehicle injections were made at 20 minute intervals to determine vehicle effects, if any. Subsequently, increasing doses (2-5) of Na^+ channel blocking compound were administered intravenously or intraduodenaly at half-log order increments at 30 or 60 minute intervals in order to construct a cumulative dose-response relationship. At the end of the control saline cystometry period, the third vehicle, and 20-50 minutes following each subsequent treatment, the infusion pump was stopped, the bladder was emptied by fluid withdrawal via the infusion catheter and a single filling cystometrogram was performed at the same flow rate in order to determine changes in bladder capacity caused by the irritation protocol and subsequent intravenous or intraduodenal drug administration.
Data were analyzed by non-parametric ANOVA for repeated measures (Friedman Test) with Dunn's Multiple Comparison test. All comparisons were made from the last vehicle measurement (AA/Veh 3) or the lowest dose of drug. P<0.050 was considered significant.

Assay [2] deals with T1, TTX-R sodium currents in bladder afferent neurons (Rattus norvegicus, UniProt Q62968).
T1 construct: Whole cell patch-clamp recordings were obtained from dye-labeled DRG neurons; endogenous in cells; host or cells: primary dissociated L6/S1 dorsal root ganglion neurons of Sprague-Dawley rats, dye-labelled bladder afferents
T1 sequence (Q62968 whole entry): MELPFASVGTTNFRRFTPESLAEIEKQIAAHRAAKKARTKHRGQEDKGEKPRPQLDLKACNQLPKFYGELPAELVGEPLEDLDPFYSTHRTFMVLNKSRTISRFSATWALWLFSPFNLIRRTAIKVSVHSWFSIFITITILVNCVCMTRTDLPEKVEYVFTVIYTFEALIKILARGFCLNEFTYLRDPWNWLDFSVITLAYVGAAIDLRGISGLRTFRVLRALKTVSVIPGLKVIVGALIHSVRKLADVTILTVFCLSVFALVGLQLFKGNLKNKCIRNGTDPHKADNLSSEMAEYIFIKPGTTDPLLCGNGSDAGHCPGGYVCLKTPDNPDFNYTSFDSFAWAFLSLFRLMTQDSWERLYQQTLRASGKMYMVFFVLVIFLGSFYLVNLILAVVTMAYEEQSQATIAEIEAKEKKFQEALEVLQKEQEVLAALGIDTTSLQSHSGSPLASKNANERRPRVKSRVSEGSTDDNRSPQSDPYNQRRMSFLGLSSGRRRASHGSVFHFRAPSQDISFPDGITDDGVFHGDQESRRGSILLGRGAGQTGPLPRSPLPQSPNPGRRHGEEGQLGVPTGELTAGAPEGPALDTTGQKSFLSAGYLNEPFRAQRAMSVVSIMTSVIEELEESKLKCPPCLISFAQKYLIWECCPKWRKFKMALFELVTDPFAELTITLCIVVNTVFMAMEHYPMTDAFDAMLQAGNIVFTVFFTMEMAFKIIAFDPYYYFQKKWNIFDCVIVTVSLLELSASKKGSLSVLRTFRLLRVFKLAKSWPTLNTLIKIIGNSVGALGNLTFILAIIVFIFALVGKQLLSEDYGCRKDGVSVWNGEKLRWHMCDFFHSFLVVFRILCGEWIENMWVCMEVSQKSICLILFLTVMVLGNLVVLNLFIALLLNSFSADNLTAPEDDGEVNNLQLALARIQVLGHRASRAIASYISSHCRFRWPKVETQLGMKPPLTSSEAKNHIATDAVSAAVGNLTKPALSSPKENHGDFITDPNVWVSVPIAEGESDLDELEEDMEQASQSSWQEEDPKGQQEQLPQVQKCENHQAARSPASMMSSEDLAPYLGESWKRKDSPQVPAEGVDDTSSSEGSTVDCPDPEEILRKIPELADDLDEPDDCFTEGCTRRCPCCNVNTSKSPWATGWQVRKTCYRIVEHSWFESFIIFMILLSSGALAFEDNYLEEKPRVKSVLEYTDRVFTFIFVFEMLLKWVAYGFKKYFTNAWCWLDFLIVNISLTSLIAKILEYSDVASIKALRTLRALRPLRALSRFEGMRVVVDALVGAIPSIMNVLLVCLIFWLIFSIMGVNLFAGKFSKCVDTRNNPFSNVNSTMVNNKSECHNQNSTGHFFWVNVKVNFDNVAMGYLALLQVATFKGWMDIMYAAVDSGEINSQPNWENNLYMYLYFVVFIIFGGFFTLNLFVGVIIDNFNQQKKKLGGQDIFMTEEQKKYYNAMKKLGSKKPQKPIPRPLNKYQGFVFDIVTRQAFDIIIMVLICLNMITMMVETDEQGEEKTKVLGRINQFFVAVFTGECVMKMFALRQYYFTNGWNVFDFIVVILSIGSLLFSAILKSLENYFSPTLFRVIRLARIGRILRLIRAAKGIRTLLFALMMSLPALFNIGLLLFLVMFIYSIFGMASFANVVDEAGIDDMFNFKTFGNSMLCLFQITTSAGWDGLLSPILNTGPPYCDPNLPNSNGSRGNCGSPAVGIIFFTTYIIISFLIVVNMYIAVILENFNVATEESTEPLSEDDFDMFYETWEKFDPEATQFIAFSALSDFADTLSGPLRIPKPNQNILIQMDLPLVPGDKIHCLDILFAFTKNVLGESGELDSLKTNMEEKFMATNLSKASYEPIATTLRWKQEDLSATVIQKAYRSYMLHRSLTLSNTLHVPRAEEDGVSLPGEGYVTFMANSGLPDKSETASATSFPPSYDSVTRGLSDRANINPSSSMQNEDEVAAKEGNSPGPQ
Description: Bladder sensory neuron sodium channel current model: whole cell patch-clamp of TTX-R sodium currents. The class given is cell-based. The conditions noted are these: for concentration-response effect on TTX-R sodium current amplitude: bath application, cumulative concentrations, bladder afferent neurons; for effect on inward TTX-R sodium current: 100 μM bath application, labeled bladder afferent neuron. As for the experimental part:
Labeling of bladder afferent neurons: Adult female Sprague-Dawley rats (150-300 g) were deeply anesthetized with pentobarbital anesthesia and placed on isoflurane maintenance anesthesia. A ventral midline incision was made through the abdominal skin and musculature, exposing the urinary bladder. Five injections of the fluorescent dye Di-I (5 μl each of 25 mg/ml Di-I in DMSO) or Fast Blue (4% w/v) were made into the bladder smooth muscle wall to label primary afferent fibers innervating the bladder. The area was rinsed with sterile saline to eliminate nonspecific spread of dye, and the incision was closed. Rats recovered for 5-12 days to allow for transport of fluorescent dye from distal terminals to the cell somata of dorsal root ganglion (DRG) neurons. Labeled neurons were identified in vitro using fluorescence optics.
Neuronal cultures: Di-I injected rats were euthanized with pentobarbital anesthesia. Lumbar (L6) and sacral (S1) DRG were dissected from the vertebral column and placed in Dulbecco's modified Eagles medium (DMEM) containing 0.3% collagenase B for 60 min at 37° C. The cell solution was exchanged for a 0.25% trypsin in calcium/magnesium-free Dulbecco's phosphate-buffered saline solution, and further digested for 30 min at 37° C. Following a wash in fresh DMEM, ganglia were dissociated by a series of triturations using fire-polished Pasteur pipettes. DRG cells were plated on polylysine-treated glass coverslips. Cells were plated at a density of 0.5 DRG per coverslip in 1 ml DMEM supplemented with 10% FBS, NGF, and 100 U/ml penicillin/streptomycin. All experimental procedures involving rats were conducted under a protocol approved by an Institutional Animal Care and Use Committee. Small variations in the concentrations of reagents, incubation times, etc. may occur and are expected to give similar results.
In most experiments, neurons were incubated in culture medium containing the FITC-labeled lectin BSI-B4 (IB4, […]) at 37° C. for 5 min before recording. The coverslip was washed with extracellular recording solution for 1 min before being placed in a recording chamber mounted on the stage of an inverted microscope equipped with fluorescence optics.
Electrophysiology: Electrophysiologic evaluation of neurons occurred within 4-48 h of plating. Whole cell patch-clamp recordings were obtained from dye-labeled DRG neurons. Recordings were obtained in an extracellular recording solution (pH 7.4, 295-320 mosM) consisting of (in mM) 140 NaCl, 3 KCl, 1 CaCl2, 1 MgCl2, 0.1 CdCl2, 10 HEPES, and 10 glucose. Patch-clamp electrodes were pulled from borosilicate glass and fire polished to 2-6 MOhm tip resistance. The internal pipette recording solution (pH 7.3, 290-300 mosM) consisted of (in mM) 140 CsCl, 10 NaCl, 1 EGTA, and 10 HEPES. Tetrodotoxin (TTX, 0.3 uM) was included in the extracellular solution to block TTX-sensitive sodium currents. Variations in the concentrations and types of reagents used for solutions may occur and are expected to give similar results.
Sodium currents were recorded from DRG neurons using standard electrophysiologic protocols. Neurons were typically voltage-clamped at −50 mV. Currents were recorded using a patch-clamp amplifier and digitized at 3-10 kHz for acquisition. Neuronal input resistance and membrane capacitance were determined from the amplitude and kinetics of the current response to a voltage pulse from a holding potential of −50 mV. Series resistance was compensated 75-95% for all recordings. Leak currents were cancelled online using a standard P/4 protocol. Depolarizing steps from −90, −70, or −50 mV to 0 mV were delivered every 5 or 30 sec during drug application to determine the effects of drugs on sodium currents. For all cell types, baseline responses were recorded for a minimum of 10 min to ensure that the kinetics of the response was stable. A wash out or recovery period usually followed the drug application period. […]
(The patch-clamp technique gives a direct electrical read-out from membranes.)

The term IC50 denotes the concentration needed to halve the response being measured.

Entries after “also recorded” stand apart in the source; their conditions may differ. Counter-ions that a name gives are not always drawn.

Take `COC1=CC(=O)O[C@@H]1[C@@H](O)c1ccccc1Cl` (relative stereo) [Losigamone, (5R*)-5-[(alphaS*)-o-Chloro-alpha-hydroxybenzyl]-4-methoxy-2(5H)-furanone]: the “post-test: reversal of bladder capacity reduction” value in assay [1] (300 mg/kg dose, intraduodenal) was “statistically significant reversal of bladder capacity reduction”. The “effect on bladder capacity (reversal of acetic acid-induced reduction)” value in assay [1] (intraduodenal) was “capable of partially reversing the reduction in bladder capacity caused by acetic acid in a dose-dependent fashion; also recorded: dose-dependent and statistically significant reversal”; in assay [1] (intraduodenal, listed as losigamone), “dose-dependent, statistically significant increases in bladder capacity”.
Take `Nc1c(Br)cc(Br)cc1CNC1CCC(O)CC1` (centres unmarked) [Ambroxol]: the “concentration-response effect on TTX-R sodium current amplitude” value in assay [2] is “concentration-dependent reversible block; also recorded: reversible, concentration-dependent reduction in current amplitude”. Moreover, the IC50 in assay [2] (three bladder afferent neurons, 2-3 minute application, TTX 300 nM present, read-out: estimated IC50 for block of TTX-R sodium currents) was approximately 15 µM. For the same compound, the “post-test: reversal of bladder capacity reduction” value in assay [1] (300 mg/kg dose, intraduodenal) was “statistically significant reversal of bladder capacity reduction”. Further, the “effect on bladder capacity (reversal of acetic acid-induced reduction)” value is “capable of partially reversing the reduction in bladder capacity caused by acetic acid in a dose-dependent fashion; also recorded: dose-dependent and statistically significant reversal” in assay [1] (intraduodenal); “dose-dependent, statistically significant increases in bladder capacity” in assay [1] (intraduodenal, listed as ambroxol).
`NC(=O)N1c2ccccc2C=Cc2ccccc21` [Carbamazepine]: the “post-test: reversal of bladder capacity reduction” value in assay [1] (100 mg/kg dose, intraduodenal) is given as “statistically significant reversal of bladder capacity reduction”. Further, the “effect on bladder capacity (reversal of acetic acid-induced reduction)” value in assay [1] (intraduodenal) is “capable of partially reversing the reduction in bladder capacity caused by acetic acid in a dose-dependent fashion; also recorded: dose-dependent and statistically significant reversal”; in assay [1] (intraduodenal, listed as carbamazepine) it was “dose-dependent, statistically significant increases in bladder capacity”.
As for `Cc1cccc(C)c1OCC(C)N` (centres unmarked) [Mexiletine, 1-(2,6-Dimethylphenoxy)-2-propanamine hydrochloride], the “post-test: reversal of bladder capacity reduction” value in assay [1] (30 mg/kg dose, intraduodenal) was “statistically significant reversal of bladder capacity reduction”. Moreover, the “effect on bladder capacity (reversal of acetic acid-induced reduction)” value is “capable of partially reversing the reduction in bladder capacity caused by acetic acid in a dose-dependent fashion; also recorded: dose-dependent and statistically significant reversal” in assay [1] (intraduodenal, hydrochloride); “dose-dependent, statistically significant increases in bladder capacity” in assay [1] (intraduodenal, listed as mexilitine, hydrochloride).
On to `C[C@H](NCc1ccc(OCc2ccccc2F)cc1)C(N)=O` [Ralfinamide, (+)-2(S)-[4-(2-Fluorobenzyloxy)benzylamino]propionamide], for which the “effect on inward TTX-R sodium current” value in assay [2] was “blocked the current”. For the same compound, the “peak TTX-R sodium current” value in assay [2] (100 μM, three neurons, holding potential −50 mV, pulse to 0 mV) is 36±6 % of control. In assay [1] (30 mg/kg dose, intraduodenal), the “post-test: reversal of bladder capacity reduction” value is “statistically significant reversal of bladder capacity reduction”. Further, the “effect on bladder capacity (reversal of acetic acid-induced reduction)” value in assay [1] (intraduodenal) was “capable of partially reversing the reduction in bladder capacity caused by acetic acid in a dose-dependent fashion; also recorded: dose-dependent and statistically significant reversal”; in assay [1] (intraduodenal, listed as ralfinamide), “dose-dependent, statistically significant increases in bladder capacity”.
On to `CN1CCN(c2ncc(-c3cc(Cl)cc(Cl)c3Cl)c(N)n2)CC1` [Sipatrigine, 4-Amino-2-(4-methylpiperazin-1-yl)-5-(2,3,5-trichlorophenyl)pyrimidine], for which the “effect on inward TTX-R sodium current” value in assay [2] was “blocked the current”. The “concentration-response effect on TTX-R sodium current amplitude” value in assay [2] is recorded as “concentration-dependent reduction in current amplitude”. Besides, the “post-test: reversal of bladder capacity reduction” value is reported as “statistically significant reversal of bladder capacity reduction” in assay [1] (30 mg/kg dose, intraduodenal) and “statistically significant reversal of bladder capacity reduction” in assay [1] (100 mg/kg dose, intraduodenal). Further, the “effect on bladder capacity (reversal of acetic acid-induced reduction)” value in assay [1] (intraduodenal) is “capable of partially reversing the reduction in bladder capacity caused by acetic acid in a dose-dependent fashion; also recorded: dose-dependent and statistically significant reversal”; in assay [1] (intraduodenal, listed as sipatrigine), “dose-dependent, statistically significant increases in bladder capacity”.
In the case of `Cc1ccc(C(=O)C(C)CN2CCCCC2)cc1` (centres unmarked) [Tolperisone], the “effect on bladder capacity (reversal of acetic acid-induced reduction)” value is “Neither Vinpocetine (FIG. 9) nor intravenous Tolperisone (FIG. 10) demonstrated statistically significant effects on bladder capacity; also recorded: not capable of significantly reversing the reduction in bladder capacity caused by acetic acid” in assay [1] (intravenous) and “neither intraduodenal vinpocetine (n=6; 3-100 mg/kg) nor intravenous tolperisone (n=4; 3-10 mg/kg) demonstrated statistically significant effects on bladder capacity” in assay [1] (intravenous, listed as tolperisone).
Consider `CCOC(=O)C1=C[C@]2(CC)CCCN3CCc4c(n1c1ccccc41)[C@@H]32` [Vinpocetine], for which the “effect on bladder capacity (reversal of acetic acid-induced reduction)” value is reported as “not capable of significantly reversing the reduction in bladder capacity caused by acetic acid; also recorded: Neither Vinpocetine (FIG. 9) nor intravenous Tolperisone (FIG. 10) demonstrated statistically significant effects on bladder capacity” in assay [1] (intraduodenal) and “neither intraduodenal vinpocetine (n=6; 3-100 mg/kg) nor intravenous tolperisone (n=4; 3-10 mg/kg) demonstrated statistically significant effects on bladder capacity” in assay [1] (intraduodenal, listed as vinpocetine).

Values taken from patent publication US20050107353A1, “Methods of treating lower urinary tract disorders using losigamone” (Dynogen Pharmaceuticals, Inc., priority 2003, published 2005).
